Test results reported in patent US11078198B2 (BRISTOL-MYERS SQUIBB COMPANY, priority 2017, dated 2021).

These compounds were tested against T1, human FXR (Homo sapiens, UniProt Q96RI1) (assay: transient human FXR/Gal4-luciferase reporter assay). Conditions: Gal4-hFXR transfected HEK293 reporter cells; relative to 8 μM GW-4064.
T1 construct: expressed in transfected cells; host or cells: HEK293 cells stably carrying a 5xGal4-response-element firefly luciferase reporter, transiently transfected with pcDNA3.1-Gal4-FXR
T1 sequence (Q96RI1 262-486 limits assumed): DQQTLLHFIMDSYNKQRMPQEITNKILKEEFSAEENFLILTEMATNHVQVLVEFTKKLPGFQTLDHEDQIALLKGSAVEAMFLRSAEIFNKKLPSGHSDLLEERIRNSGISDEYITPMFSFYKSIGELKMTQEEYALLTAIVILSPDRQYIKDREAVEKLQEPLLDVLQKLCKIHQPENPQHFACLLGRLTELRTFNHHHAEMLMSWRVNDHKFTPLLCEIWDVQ
Type: cell-based
In short: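 Transient Gal4-hFXR LBD fusion (pcDNA3.1, Lipofectamine, overnight) expressed in a HEK293 reporter line stably bearing five Gal4 elements upstream of firefly luciferase, grown in charcoal/dextran-stripped FBS. Compound dilutions in DMSO incubated with cells overnight at 37° C, 5% CO2, before luciferase readout.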
`COc1cc(C(=O)O)nc2ccc(N3CCC4(C=C(c5c(-c6cnccc6C(F)(F)F)noc5C5CC5)C4)CC3)cc12` [Example 146, 6-(2-(5-Cyclopropyl-3-(4-(trifluoromethyl)pyridin-3-yl)isoxazol-4-yl)-7-azaspiro[3.5]non-1-en-7-yl)-4-methoxyquinoline-2-carboxylic acid] was tested, and the EC50 was 185 nM. With `O=C(O)c1cc2ccc(N3CCC4(C=C(c5c(-c6c(Cl)cccc6Cl)noc5C5CC5)C4)CC3)cc2cn1` [Example 129, 7-(2-(5-Cyclopropyl-3-(2,6-dichlorophenyl)isoxazol-4-yl)-7-azaspiro[3.5]non-1-en-7-yl)isoquinoline-3-carboxylic acid] the EC50 was 341 nM. Work on `O=C(O)c1ccc(N2CC3(C=C(c4c(-c5ccccc5C(F)(F)F)noc4C4CC4)C3)C2)nc1` [Example 35, 6-(6-(5-cyclopropyl-3-(2-(trifluoromethyl)phenyl)isoxazol-4-yl)-2-azaspiro[3.3]hept-5-en-2-yl)nicotinic acid] yielded an EC50 of 4300 nM. In the case of `Cc1cccc(Cl)c1-c1noc(C2CC2)c1C1=CC2(CCN(c3ccc4cc(C(=O)O)nnc4c3)CC2)C1` [Example 57, 7-(2-(3-(2-Chloro-6-methylphenyl)-5-cyclopropylisoxazol-4-yl)-7-azaspiro[3.5]non-1-en-7-yl)cinnoline-3-carboxylic acid], the EC50 is reported as 227 nM. For `O=C(NS(=O)(=O)C1CC1)c1cc(F)c2nc(N3CCC4(C=C(c5c(-c6c(Cl)cccc6Cl)noc5C5CC5)C4)CC3)sc2c1` [Example 179, 2-(2-(5-Cyclopropyl-3-(2,6-dichlorophenyl)isoxazol-4-yl)-7-azaspiro[3.5]non-1-en-7-yl)-N-(cyclopropylsulfonyl)-4-fluorobenzo[d]thiazole-6-carboxamide], the EC50 was 13 nM. `CC(C)Oc1cc(C(=O)O)nc2ccc(N3CCC4(C=C(c5c(-c6ccccc6OC(F)(F)F)noc5C5CC5)C4)CC3)cc12` [Example 106, 6-(2-(5-Cyclopropyl-3-(2-(trifluoromethoxy)phenyl)isoxazol-4-yl)-7-azaspiro[3.5]non-1-en-7-yl)-4-isopropoxyquinoline-2-carboxylic acid] gave an EC50 of 21 nM. `O=C(O)c1cc(F)c2nc(N3CCC4(C=C(c5c(C(F)F)cnn5-c5ccccc5C(F)(F)F)C4)CC3)sc2c1` [Example 213, 2-(2-(4-(Difluoromethyl)-1-(2-(trifluoromethyl)phenyl)-1H-pyrazol-5-yl)-7-azaspiro[3.5]non-1-en-7-yl)-4-fluorobenzo[d]thiazole-6-carboxylic acid] gave an EC50 of 48 nM. In the case of `Cc1cc(C(=O)O)cc2sc(N3CCC4(C=C(c5c(C(F)F)cnn5-c5ccccc5OC(F)(F)F)C4)CC3)nc12` [Example 221, 2-(2-(4-(Difluoromethyl)-1-(2-(trifluoromethoxy)phenyl)-1H-pyrazol-5-yl)-7-azaspiro[3.5]non-1-en-7-yl)-4-methylbenzo[d]thiazole-6-carboxylic acid], the EC50 is reported as 182 nM. `COc1cc(C(=O)O)cc2sc(N3CCC4(C=C(c5c(-c6c(Cl)cncc6Cl)noc5C5CC5)C4)CC3)nc12` [Example 59, 2-(2-(5-Cyclopropyl-3-(3,5-dichloropyridin-4-yl)isoxazol-4-yl)-7-azaspiro[3.5]non-1-en-7-yl)-4-methoxybenzo[d]thiazole-6-carboxylic acid] showed an EC50 of 4.1 nM. In the case of `Cc1cc(C(=O)O)cc2sc(N3CCC4(CC3)CC(c3c(C(F)F)cnn3-c3ccccc3C(F)(F)F)C4)nc12` [Example 220, 2-(2-(4-(Difluoromethyl)-1-(2-(trifluoromethyl)phenyl)-1H-pyrazol-5-yl)-7-azaspiro[3.5]nonan-7-yl)-4-methylbenzo[d]thiazole-6-carboxylic acid], the EC50 is reported as 378 nM. Work on `O=C(O)c1cc2ccc(N3CCC4(C=C(c5c(-c6c(F)cccc6Cl)noc5C5CC5)C4)CC3)cc2nn1` [Example 56, 7-(2-(3-(2-Chloro-6-fluorophenyl)-5-cyclopropylisoxazol-4-yl)-7-azaspiro[3.5]non-1-en-7-yl)cinnoline-3-carboxylic acid] yielded an EC50 of 194 nM. In the case of `O=C(O)c1cc(C(F)(F)F)c2cc(N3CCC4(C=C(c5c(-c6cccnc6C(F)(F)F)noc5C5CC5)C4)CC3)ccc2n1` [Example 92, 6-(2-(5-Cyclopropyl-3-(2-(trifluoromethyl)pyridin-3-yl)isoxazol-4-yl)-7-azaspiro[3.5]non-1-en-7-yl)-4-(trifluoromethyl)quinoline-2-carboxylic acid], the EC50 is reported as 253 nM. `O=C(O)c1ccc2cc(OC3CCC4(C=C(c5c(-c6c(Cl)cccc6Cl)noc5C5CC5)C4)CC3)ccc2n1` (centres unmarked) [Example 210, 6-((2-(5-Cyclopropyl-3-(2,6-dichlorophenyl)isoxazol-4-yl)spiro[3.5]non-1-en-7-yl)oxy)quinoline-2-carboxylic acid] was tested, and the EC50 was 485 nM. Work on `O=C(NS(=O)(=O)C1CC1)c1cc(F)c2nc(N3CCC4(C=C(c5c(-c6c(Cl)cncc6Cl)noc5C5CC5)C4)CC3)sc2c1` [Example 181, 2-(2-(5-Cyclopropyl-3-(3,5-dichloropyridin-4-yl)isoxazol-4-yl)-7-azaspiro[3.5]non-1-en-7-yl)-N-(cyclopropylsulfonyl)-4-fluorobenzo[d]thiazole-6-carboxamide] yielded an EC50 of 60 nM. For `O=C(O)c1cc(OC(F)F)c2cc(N3CCC4(C=C(c5c(-c6c(Cl)cncc6Cl)noc5C5CC5)C4)CC3)ccc2n1` [Example 73, 6-(2-(5-Cyclopropyl-3-(3,5-dichloropyridin-4-yl)isoxazol-4-yl)-7-azaspiro[3.5]non-1-en-7-yl)-4-(difluoromethoxy)quinoline-2-carboxylic acid], the EC50 was 16 nM. `O=C(O)c1ccc2nc(N3CCC4(C=C(c5c(-c6ccccc6C(F)(F)F)noc5C5CC5)C4)CC3)sc2n1` [Example 102, 2-(2-(5-Cyclopropyl-3-(2-(trifluoromethyl)phenyl)isoxazol-4-yl)-7-azaspiro[3.5]non-1-en-7-yl)thiazolo[5,4-b]pyridine-5-carboxylic acid] gave an EC50 of 18 nM. `O=C(O)c1ccn2nc(N3CCC4(C=C(c5c(-c6c(Cl)cccc6Cl)noc5C5CC5)C4)CC3)ncc12` [Example 123, 2-(2-(5-Cyclopropyl-3-(2,6-dichlorophenyl)isoxazol-4-yl)-7-azaspiro[3.5]non-1-en-7-yl)pyrrolo[2,1-f][1,2,4]triazine-5-carboxylic acid] gave an EC50 of 40 nM. Work on `COc1cc(C(=O)NS(C)(=O)=O)nc2ccc(N3CCC4(C=C(c5c(-c6ccccc6C(F)(F)F)noc5C5CC5)C4)CC3)cc12` [Example 196, 6-(2-(5-Cyclopropyl-3-(2-(trifluoromethyl)phenyl)isoxazol-4-yl)-7-azaspiro[3.5]non-1-en-7-yl)-4-methoxy-N-(methylsulfonyl)quinoline-2-carboxamide] yielded an EC50 of 155 nM. `O=C(O)c1cc(OC(F)F)c2cc(N3CCC4(C=C(c5c(-c6ncccc6Cl)noc5C5CC5)C4)CC3)ccc2n1` [Example 78, 6-(2-(3-(3-Chloropyridin-2-yl)-5-cyclopropylisoxazol-4-yl)-7-azaspiro[3.5]non-1-en-7-yl)-4-(difluoromethoxy)quinoline-2-carboxylic acid] showed an EC50 of 121 nM. With `O=C(O)c1cc2ccc(N3CCC4(C=C(c5c(-c6ccccc6C(F)(F)F)noc5C5CC5)C4)CC3)cc2cn1` [Example 159, 7-(2-(5-Cyclopropyl-3-(2-(trifluoromethyl)phenyl)isoxazol-4-yl)-7-azaspiro[3.5]non-1-en-7-yl)isoquinoline-3-carboxylic acid] the EC50 was 254 nM.
